Assay results from patent US6972296B2, “Carboxylic acid derivatives that inhibit the binding of integrins to their receptors” (Encysive Pharmaceuticals Inc., priority 1999, dated 2005).
Each block holds one compound with its values, some of them ahead of it.

Target: T1, α4β1 integrin (Homo sapiens, UniProt P05556+P13612)
T1 construct: endogenous in cells; host or cells: Ramos cells
Test: Adhesion of calcein-labeled Ramos cells to CS1 (fibronectin) peptide conjugated ovalbumin
Assay type: cell-based
Details: Ramos cell adhesion to CS1 conjugated ovalbumin
Method: A procedure in which a 26-amino acid peptide containing the CS1 sequence of fibronectin with an N-terminal Cys ([…]) was coupled to maleimide activated ovalbumin was used to determine the efficacy of the compounds synthesized. Bovine serum albumin (BSA) and CS1 conjugated ovalbumin were coated onto 96-well polystyrene plates at 0.5 μg/ml in TBS (50 mM TRIS, pH 7.5; 150 mM NaCl) at 4° C. for 16 hours. The plates were washed three times with TBS and blocked with TBS containing 3% BSA at room temperature for 4 hours. Blocked plates were washed three times in binding buffer (TBS; 1 mM MgCl2; 1 mM CaCl2; 1 mM MnCl2) prior to assay. Ramos cells fluorescently labeled with calcein AM were resuspended in binding buffer (10^7 cells/ml) and diluted 1:2 with same buffer with or without compound. 100 μM of compound was added. The cells were added immediately to the wells (2.5×10^5 cells/well) and incubated for 30 minutes at 37° C. Following three washes with binding buffer, adherent cells were lysed and quantitated using a fluorometer. IC50 is defined as the dose required to give 50% inhibition, measured in μM for Tables 2 and 4. The lower the IC50 value and the greater the percentage of inhibition, the more efficient the compound is at prevention of cell adhesion.

[1] = Table 7, dose required to give 50% inhibition
[2] = Table 5, dose required to give 50% inhibition

T1 sequence (P13612 34-1032): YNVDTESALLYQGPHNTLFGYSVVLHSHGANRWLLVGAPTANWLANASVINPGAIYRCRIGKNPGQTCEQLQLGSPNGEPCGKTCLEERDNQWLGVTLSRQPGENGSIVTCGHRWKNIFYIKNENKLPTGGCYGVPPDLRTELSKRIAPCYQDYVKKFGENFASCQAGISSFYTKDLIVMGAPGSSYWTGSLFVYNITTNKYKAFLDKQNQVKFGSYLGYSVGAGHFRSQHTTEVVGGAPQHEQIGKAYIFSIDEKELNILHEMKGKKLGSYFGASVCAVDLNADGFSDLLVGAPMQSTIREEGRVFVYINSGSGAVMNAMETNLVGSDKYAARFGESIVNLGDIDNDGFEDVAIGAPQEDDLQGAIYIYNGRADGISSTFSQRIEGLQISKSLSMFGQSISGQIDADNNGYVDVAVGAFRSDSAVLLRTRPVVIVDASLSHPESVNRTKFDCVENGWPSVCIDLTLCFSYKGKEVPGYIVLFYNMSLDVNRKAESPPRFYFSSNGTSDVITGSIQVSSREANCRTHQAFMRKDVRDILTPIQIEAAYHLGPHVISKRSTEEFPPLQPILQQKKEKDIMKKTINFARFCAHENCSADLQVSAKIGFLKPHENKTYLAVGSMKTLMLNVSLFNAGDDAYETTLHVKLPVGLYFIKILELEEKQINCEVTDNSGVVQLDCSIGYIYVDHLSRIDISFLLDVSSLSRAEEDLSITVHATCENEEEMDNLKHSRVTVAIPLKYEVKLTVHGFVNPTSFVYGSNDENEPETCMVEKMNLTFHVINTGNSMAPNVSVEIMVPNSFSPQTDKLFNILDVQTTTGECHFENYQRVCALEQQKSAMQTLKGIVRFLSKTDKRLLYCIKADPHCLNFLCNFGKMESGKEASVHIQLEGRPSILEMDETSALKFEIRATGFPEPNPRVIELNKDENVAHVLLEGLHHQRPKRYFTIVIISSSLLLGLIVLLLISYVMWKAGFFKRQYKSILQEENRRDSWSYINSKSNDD
T1 sequence (P05556 21-798): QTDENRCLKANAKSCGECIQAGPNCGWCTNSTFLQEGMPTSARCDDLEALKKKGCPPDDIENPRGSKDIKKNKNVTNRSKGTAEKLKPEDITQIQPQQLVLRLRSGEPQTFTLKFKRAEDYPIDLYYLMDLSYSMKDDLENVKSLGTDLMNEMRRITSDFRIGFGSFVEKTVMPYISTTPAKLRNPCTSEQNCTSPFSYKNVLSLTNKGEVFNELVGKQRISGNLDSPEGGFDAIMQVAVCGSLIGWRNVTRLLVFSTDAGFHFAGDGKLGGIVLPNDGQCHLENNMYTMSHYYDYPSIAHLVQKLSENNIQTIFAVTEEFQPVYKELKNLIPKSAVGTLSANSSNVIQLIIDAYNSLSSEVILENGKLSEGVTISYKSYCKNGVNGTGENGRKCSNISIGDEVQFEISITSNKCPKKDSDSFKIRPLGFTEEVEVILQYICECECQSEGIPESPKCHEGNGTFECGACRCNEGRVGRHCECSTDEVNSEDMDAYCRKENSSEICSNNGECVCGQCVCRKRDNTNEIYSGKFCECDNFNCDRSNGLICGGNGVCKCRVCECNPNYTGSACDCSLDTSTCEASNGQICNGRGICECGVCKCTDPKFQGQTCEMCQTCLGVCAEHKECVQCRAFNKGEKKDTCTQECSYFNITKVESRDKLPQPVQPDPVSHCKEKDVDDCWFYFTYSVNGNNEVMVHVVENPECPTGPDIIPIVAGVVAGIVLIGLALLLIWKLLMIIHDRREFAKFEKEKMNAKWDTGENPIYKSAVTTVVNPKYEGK

IC50 [1]: 4 nM
SMILES: CCOc1cccc(Cl)c1Cn1c(C)c(C)c(O)c(NC(=O)N[C@@H](CC(=O)O)c2ccc(C)cc2)c1=O

IC50 (Table 4, 30 minutes at 37° C.): 2000 nM
SMILES: O=C(O)C[C@H](NC(=O)Nc1cccn(Cc2ccc(F)cc2)c1=O)c1ccc2c(c1)OCO2

IC50 (Table 4, 30 minutes at 37° C.): 50 nM
SMILES: Cc1ccc([C@H](CC(=O)O)NC(=O)Nc2cccn(Cc3ccccc3Br)c2=O)cc1

IC50 (Table 4, 30 minutes at 37° C.): 30 nM
SMILES: Cc1ccc([C@H](CC(=O)O)NC(=O)Nc2c(O)ccn(Cc3ccccc3)c2=O)cc1

IC50 (Table 3, 30 minutes at 37° C.): 20 nM
SMILES: Cc1ccc([C@H](CC(=O)O)NC(=O)Nc2c(Br)ccn(Cc3ccccc3Cl)c2=O)cc1

IC50 [1]: 3 nM
SMILES: CC1(C)Cc2cc([C@H](CC(=O)O)NC(=O)Nc3c(O)c4c(n(Cc5ccccc5Cl)c3=O)CCC4)ccc2O1

IC50 (Table 6, 30 minutes at 37° C.): 15 nM
SMILES: CCCc1cn(Cc2c(Cl)cccc2OC)c(=O)c(NC(=O)N[C@@H](CC(=O)O)c2ccc(C)c(OC)c2)c1O

IC50 [1]: 9 nM
SMILES: COc1ccc([C@H](CC(=O)O)NC(=O)Nc2c(O)c(C)cn(Cc3ccccc3Cl)c2=O)cc1C

IC50 (Table 6, 30 minutes at 37° C.): 3 nM
SMILES: CCOc1cccc([C@H](CC(=O)O)NC(=O)Nc2c(O)ccn(Cc3c(Cl)cccc3OCC)c2=O)c1 [(3S)-3-[({[1-(2-chloro-6-ethoxybenzyl)-4-hydroxy-2-oxo-1,2-dihydropyridin-3-yl]amino}carbonyl)amino]-3-(3-ethoxyphenyl)propanoic acid]

IC50 [1]: 5 nM
SMILES: CCOc1ccc(Cl)c(Cl)c1Cn1c2c(c(O)c(NC(=O)N[C@@H](CC(=O)O)c3ccc(C)cc3)c1=O)CCC2

IC50 (Table 6, 30 minutes at 37° C.): 3 nM
SMILES: CCOc1ccc([C@H](CC(=O)O)NC(=O)Nc2c(O)c3c(n(Cc4ccccc4Cl)c2=O)CCC3)cc1OCC

IC50 (Table 6, 30 minutes at 37° C.): 5 nM
SMILES: CCOc1cccc([C@H](CC(=O)O)NC(=O)Nc2c(O)c(C)nn(Cc3ccccc3Cl)c2=O)c1

IC50 (Table 6, 30 minutes at 37° C.): 15 nM
SMILES: O=C(O)C[C@H](NC(=O)Nc1c(O)ccn(Cc2ccccc2Cl)c1=O)c1cccc(OC(F)(F)C(F)F)c1

IC50 [2]: 20 nM
SMILES: CSc1ccccc1Cn1ccc(O)c(NC(=O)N[C@@H](CC(=O)O)c2ccc(C)cc2)c1=O

IC50 (Table 4, 30 minutes at 37° C.): 5000 nM
SMILES: O=C(O)C[C@H](NC(=O)Nc1cccn(Cc2cc(Cl)cc(Cl)c2)c1=O)c1ccc2c(c1)OCO2

IC50 [1]: 17 nM
SMILES: Cc1cccc(Cl)c1Cn1c2c(c(O)c(NC(=O)N[C@@H](CC(=O)O)c3ccccc3)c1=O)CCC2

IC50 [1]: 1500 nM
SMILES: Cc1ccc([C@@H](NC(=O)Nc2c(O)c(C)cn(Cc3ccccc3Cl)c2=O)[C@H](C)C(=O)O)cc1

IC50 [2]: 60 nM
SMILES: Cc1ccc([C@H](CC(=O)O)NC(=O)Nc2c(O)ccn(Cc3cc(C)cc(C)c3)c2=O)cc1

IC50 (Table 4, 30 minutes at 37° C.): 90 nM
SMILES: Cc1ccc([C@H](CC(=O)O)NC(=O)Nc2cnc(C)n(Cc3ccccc3Cl)c2=O)cc1

IC50 [2]: 50 nM
SMILES: O=C(O)CC(NC(=O)Nc1c(O)ccn(Cc2ccccc2Cl)c1=O)c1ccco1 (centres unmarked)

IC50 [1]: 8 nM
SMILES: CCOc1cccc(Cl)c1Cn1cc(C)c(O)c(NC(=O)NC(CC(=O)O)c2ccco2)c1=O (centres unmarked)

IC50 [2]: 15 nM
SMILES: Cc1ccc([C@H](CC(=O)O)NC(=O)Nc2c(O)ccn(Cc3ccccc3Br)c2=O)cc1

IC50 [1]: 3 nM
SMILES: CCOc1cccc(Cl)c1Cn1c2c(c(O)c(NC(=O)N[C@@H](CC(=O)O)c3ccc(C)cc3)c1=O)CCC2

IC50 (Table 4, 30 minutes at 37° C.): 80000 nM
SMILES: O=C(Nc1cccn(Cc2ccccc2Cl)c1=O)N[C@@H](C(=O)O)c1ccccc1

IC50 [1]: 3 nM
SMILES: CCOc1cccc([C@H](CC(=O)O)NC(=O)Nc2c(O)c(Cl)cn(Cc3c(Cl)cccc3OCC)c2=O)c1

IC50 [1]: 5 nM
SMILES: Cc1cccc([C@H](CC(=O)O)NC(=O)Nc2c(O)c3c(n(Cc4ccccc4Cl)c2=O)CCC3)c1 [(3S)-3-[({[1-(2-chlorobenzyl)-4-hydroxy-2-oxo-2,5,6,7-tetrahydro-1H-cyclopenta[b]pyridin-3-yl]amino}carbonyl)amino]-3-(3-methylphenyl)propanoic acid]

IC50 [2]: 35 nM
SMILES: Cc1ccc([C@H](CC(=O)O)NC(=O)Nc2c(O)ccn(Cc3c(C)cccc3C)c2=O)cc1

IC50 [1]: 8 nM
SMILES: CCc1ccc([C@H](CC(=O)O)NC(=O)Nc2c(O)c3c(n(Cc4ccccc4Cl)c2=O)CCC3)cc1

IC50 (Table 6, 30 minutes at 37° C.): 140 nM
SMILES: O=C(O)CC(NC(=O)Nc1c(O)ccn(Cc2ccccc2Cl)c1=O)c1cc2ccccc2o1 (centres unmarked)
